Results on 13 compounds are retold here after publication PMC7048302, “Deep Learning-driven research for drug discovery: Tackling Malaria” (PLoS Computational Biology, 2020).

For data set [1], the system named is P. falciparum 3D7 strain (chloroquine sensitive). The note with it: S3 File, continuous QSAR dataset; ref ChEMBL CHEMBL2366922 [25]; cited from earlier work.
For data set [2], the system named is mouse embryonic fibroblasts (NIH/3T3 cell line). The note with it: S4 File, continuous QSAR dataset; ref ChEMBL CHEMBL614822 [25]; cited from earlier work.
Data set [3] concerns P. falciparum 3D7 strain. The data set is described as follows: Antiplasmodial assay (SYBR Green), sensitive strain. Type of data set: cell-based, Plasmodium falciparum. The note with it: for EC50: Plasmodium falciparum; for SI^a: Selectivity index calculated by COS7 CC50/3D7 EC50; for antiplasmodial activity (concentration range in words): asexual blood stages, 3D7 and W2 strains. On the procedure: (§1) The 3D7 and W2 strains were cultured in RPMI 1640 medium supplemented with 0.05 mg/mL gentamycin, 38.4 mM HEPES, 0.2% sodium bicarbonate, and 10% O^+ human serum, as previously described in standardized protocol. Then, erythrocytes were added to the culture to obtain a 5% of hematocrit, and incubated at 37°C under 5% CO2 atmosphere, with daily exchange of medium. The parasitemia was monitored daily in smears, stained with Giemsa. Synchronic cultures in ring stage were obtained by two consecutive treatments, at 48h intervals with a 5% solution of D-sorbitol.
(§2) Parasites synchronized at the ring stage, with 0.5% parasitemia and 2% hematocrit, were distributed in the wells of a 96-well plate. The compounds were tested in triplicates using 12-point dilution series (0.019 μM– 40 μM) over 72h. Chloroquine and pyrimethamine were used as positive controls. The in vitro susceptibility of parasite to tested drugs was measured by SYBR Green according to Hartwig and colleagues. Briefly, 100 μL of lysis buffer (20 mM Tris, 5 mM EDTA, 0,008% wt/vol saponin, 0,08% vol/vol Triton X-100 and 0.4 μL/mL of SYBR Green) were added in each well of a new black 96-well plate and 100 μL of parasite culture incubated with drugs were transferred. After homogenization, the plates were incubated for 1h in the dark. Fluorescence was measured at 490 nm excitation and 540 nm emission (CLARIOstar, Labtech BMG).
(§3) The EC50 and CC50 values were calculated by plotting the Log doses vs. inhibition (expressed as a percentage relative to the control) in GraphPad Prism v.6 (GraphPad Software, La Jolla California USA, www.graphpad.com).

In data set [4] the test system is COS-7 cells. The data set is described as follows: Cytotoxicity assay (MTT reduction). Type of data set: cell-based, monkey. The note with it: in words. On the procedure:
(§4) Cytotoxicity assays used fibroblast-like cell lines derived from monkey kidney tissue (COS7 cells), grown in DMEM medium supplemented with 10% fetal bovine serum and 0.05 mg/mL gentamicin in atmosphere containing 5% CO2 at 37°C. […] After an incubation period (72 hours), cell viability analysis was performed via the MMT reduction method (3- [4,5- dimethyl-thiazol-2-yl] -2,5-diphenyltetrazolium […]).
as §3
A general note: Tetrazolium assays rely on reduction of a dye to a coloured formazan, in cell work by metabolically active cells.

The nature of data set [5]: Cytotoxicity assay (MTT reduction). Type of data set: cell-based, monkey. The note with it: monkey, COS-7 cells (fibroblast-like monkey kidney cell line); 72 hours, mean ± SD of three independent assays. On the procedure: as §4, §3
For data set [6], the system named is P. falciparum W2 strain. The experiment in a line: Antiplasmodial assay (SYBR Green), multi-drug-resistant strain. Type of data set: cell-based, Plasmodium falciparum. The note with it: for EC50: Plasmodium falciparum, read-out: EC50 (PfW2); for SI^b: Selectivity index calculated by COS7 CC50/W2 EC50. On the procedure:
as §1, §2, §3

The mark [7] stands for this setting: 3D7, asexual blood stage, 72h, mean ± SD of three independent assays, read-out: EC50 (Pf3D7).
Setting [8] is: W2, asexual blood stage, 72h, mean ± SD of three independent assays.
[9] abbreviates: 3D7, asexual blood stages of sensitive and multi-drug-resistant strains, read-out: EC50.

“Also recorded” adds a separate entry of the source. Read-outs that look alike come from different tables or passages of the source. Where only a bound is given, the exact number is not on record here.

One may read the pEC50 as the negative decadic logarithm of the EC50, by convention in mol/L. For `CC1CCC2C(C)C(O)OC3OC4(C)CCC1C32OO4` (centres unmarked), in data set [1], the pEC50 is recorded as 10.00.
In general, pCC50 refers to the negative decadic logarithm of the CC50, by convention in mol/L. Regarding `Cn1cncc1C(OCc1ccc(C#N)cc1C#Cc1ccccc1)c1ccc(C#N)cc1` (centres unmarked), the pCC50 in data set [2] is 10.00.
For orientation: EC50 means the concentration at which the effect is half-maximal. The CC50 is the concentration at which the toxic effect on the cells reaches its halfway point. As to `CC(=O)N(C1=C(N2CCOCC2)C(=O)c2ccccc2C1=O)c1ccc(C(=O)O)cc1` [LabMol-151, 4-{N-[3-(morpholin-4-yl)-1,4-dioxo-1,4-dihydronaphthalen-2-yl]acetamido}benzoic acid], the EC50 in data set [3] (setting [7]) was 1910 ± 292 nM. Further, in data set [3], the “SI^a” value is given as 73.7; the “antiplasmodial activity (concentration range in words)” value (“antiplasmodial activity” for short) is “submicromolar and low nanomolar range; also recorded: activity at submicromolar concentrations”. The “cytotoxicity in mammalian cells” value in data set [4] is “low cytotoxicity”. The compound also had a CC50 at 72 h in data set [5] of 141000 ± 11200 nM. Besides, the EC50 in data set [6] (setting [8]) worked out at 1620 ± 321 nM. Also, the “SI^b” value in data set [6] is 87.1.
As to `Cn1cncc1C(O)C1=Cc2cccnc2C(N2CCN(C(=O)NC(C)(C)C)CC2)c2ccc(Cl)cc21` (centres unmarked), the pCC50 in data set [2] is on record as 9.30.
Turning to `COc1ccc(-c2ccc(-c3ccc(C(=N)N)cc3)o2)cc1`, the pEC50 in data set [1] was 9.86.
`CC1(C)NC(C2=NOC(C)(C)N2)=NO1` [LabMol-148]: the EC50 in data set [3] (setting [7]) and in data set [6] (setting [8]) was above 40000 nM in each case. Also, the 50% cytotoxic concentration (CC50) at 72 h in data set [5] is above 200000 nM.
As for `Nc1cc(N)nc(N2CCOCC2)n1` [LabMol-150], the EC50 in data set [3] (setting [7]) and in data set [6] (setting [8]) was above 40000 nM each time. Besides, in data set [5], the CC50 at 72 h was above 200000 nM.
For `N=C(N)c1ccc(-c2ccc(-c3ccc(F)cc3)o2)cc1`, in data set [1], the pEC50 was 11.02.
As to `Cc1ccc(-c2ccc(-c3ccc(C(=N)N)cc3)o2)cc1`, in data set [1], the pEC50 is 10.24.
Regarding `CCN(CC)CCCC(C)Nc1ccnc2cc(Cl)ccc12` (centres unmarked) [Chloroquine, chloroquine, reference compound], the EC50 stood at 11 ± 1 nM in data set [3] (3D7, 72 h, read-out: EC50 (Pf3D7)) and 173 ± 20 nM in data set [6] (W2, 72 h).
Consider `Fc1cccc(Nc2nc(NCC3CCCO3)c3ccccc3n2)c1` (centres unmarked) [LabMol-152, N2-(3-fluorophenyl)-N4-[(oxolan-2-yl)methyl]quinazoline-2,4-diamine], for which the EC50 was 49 ± 29 nM in data set [3] (setting [7]), below 500 nM in data set [3] (setting [9]) and 78 ± 14 nM in data set [6] (setting [8]). For the same compound, the “SI^a” value in data set [3] was 340.8. For the same compound, in data set [3], the “antiplasmodial activity” value is “submicromolar and low nanomolar range”. The “cytotoxicity in mammalian cells” value in data set [4] is “low cytotoxicity”. This compound yielded a CC50 at 72 h in data set [5] of 16700 ± 10300 nM. In addition, the “SI^b” value in data set [6] was 214.1.
As for `CCc1nc(N)nc(N)c1-c1ccc(Cl)cc1` [Pyrimethamine, pyrimethamine, reference compound], the values for the EC50 in data set [3] (setting [7]) and in data set [6] (setting [8]) were 37 ± 7 nM and 18200 ± 4540 nM, respectively. Besides, the “SI^a” value in data set [3] was 2,702. Also, in data set [5], the 50% cytotoxic concentration (CC50) at 72 h is above 100000 nM. Also, the “SI^b” value in data set [6] was 5.5.
Regarding `Oc1ccccc1C1N=C(c2ccccc2)N=C(c2ccccc2)N1` (centres unmarked) [LabMol-149, 2-(4,6-diphenyl-1,2-dihydro-1,3,5-triazin-2-yl)phenol], the EC50 was 1450 ± 524 nM in data set [3] (setting [7]), below 500 nM in data set [3] (setting [9]) and 509 ± 177 nM in data set [6] (setting [8]). Besides, the “antiplasmodial activity” value in data set [3] was “submicromolar and low nanomolar range; also recorded: activity at submicromolar concentrations”. The “cytotoxicity in mammalian cells” value in data set [4] was “low cytotoxicity”. The same compound displayed a CC50 at 72 h in data set [5] above 100000 nM. Besides, the “SI^b” value in data set [6] is above 196.
